# Measured values as given in US12227517B2, “Pyridazinyl-thiazolecarboxamide compound” (Astellas Pharma Inc., priority 2019, dated 2025).
# Molecular target: human recombinant DGK ξ (Homo sapiens (Human), UniProt Q13574)
# Assay: Evaluation of DGK ξ inhibitory effect (ADP-Glo Kinase Assay)
# Type: biochemical
# Experimental: Test Example 1: Evaluation of DGK ξ Inhibitory Effect
# The inhibitory effect of a test compound on human recombinant DGK ξ (Carna Biosciences, Inc., 12-410-20N) was examined by the following method in which detection is performed with ADP-Glo™ Kinase Assay (Promega Corporation).
# To a 384-well plate (Greiner Bio-One Co., Ltd.), 3 μL of a […] dissolved in an assay buffer (40 mM Tris-HCl pH 7.5, 10 mM MgCl2, 1 mM dithiothreitol (DTT) and 0.1 mg/mL bovine serum albumin (BSA)) (90 ng/mL) was added, and 3 μL of the test compound diluted with the same assay buffer was added so that an intended final concentration was obtained. The mixture was left standing at room temperature for 15 minutes, 3 μL of a substrate (150 μM 1-oleoyl-2-acetyl-sn-glycerol (Sigma-Aldrich Co. LLC.), 480 μM phosphatidylserine (Avanti Polar Lipids, Inc.) and 150 μM UltraPure-ATP (attached to ADP-Glo)) was then added, and the mixture was left standing at room temperature for 30 minutes to react. Thereafter, 3 μL of an ADP-Glo Reagent was added, and the mixture was left standing at room temperature for 40 minutes to stop the enzyme reaction. Further, 6 μL of a Kinase-Detection Reagent was added, the mixture was left standing at room temperature for 30 minutes, and the luminescence was then measured using ARVO X3 (PerkinElmer, Inc.). The half maximal inhibitory concentration (IC50) was calculated by Sigmoid-Emax model non-linear regression analysis, where the signal value in solvent treatment was set to 0% inhibition and the signal value without addition of the DGK ξ enzyme was set to 100% inhibition. […] In the table, Ex represents the number of each Example described below. Also, in the table, compound C (cpd. C) represents the test compound of the Example 199 described in the international publication WO 2008/054702.
# human recombinant DGK ξ, sequence (Q13574 whole entry): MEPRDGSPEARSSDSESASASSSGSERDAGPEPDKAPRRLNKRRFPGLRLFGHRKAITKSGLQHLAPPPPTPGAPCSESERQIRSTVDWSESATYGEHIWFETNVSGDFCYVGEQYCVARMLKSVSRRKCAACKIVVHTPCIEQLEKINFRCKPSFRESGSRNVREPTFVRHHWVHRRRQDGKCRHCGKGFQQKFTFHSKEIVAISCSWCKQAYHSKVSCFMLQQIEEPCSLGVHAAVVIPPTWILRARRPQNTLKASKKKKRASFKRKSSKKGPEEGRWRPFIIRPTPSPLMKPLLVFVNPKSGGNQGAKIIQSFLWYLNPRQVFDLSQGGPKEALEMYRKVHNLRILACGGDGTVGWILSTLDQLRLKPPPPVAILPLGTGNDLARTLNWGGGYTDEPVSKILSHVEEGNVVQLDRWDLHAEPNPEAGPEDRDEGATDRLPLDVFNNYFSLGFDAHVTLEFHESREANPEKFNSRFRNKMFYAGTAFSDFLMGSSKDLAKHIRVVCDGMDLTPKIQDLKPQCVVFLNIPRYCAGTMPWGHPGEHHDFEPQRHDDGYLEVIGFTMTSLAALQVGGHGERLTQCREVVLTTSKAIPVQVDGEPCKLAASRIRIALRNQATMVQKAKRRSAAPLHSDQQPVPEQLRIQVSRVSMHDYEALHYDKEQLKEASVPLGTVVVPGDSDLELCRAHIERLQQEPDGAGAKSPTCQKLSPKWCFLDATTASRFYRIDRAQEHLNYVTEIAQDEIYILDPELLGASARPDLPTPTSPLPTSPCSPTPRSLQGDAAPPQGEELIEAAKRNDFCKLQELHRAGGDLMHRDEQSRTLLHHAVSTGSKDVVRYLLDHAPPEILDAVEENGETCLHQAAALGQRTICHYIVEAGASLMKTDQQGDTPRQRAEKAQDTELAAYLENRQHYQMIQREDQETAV
row,Compound,IC50
1,"O=C(Nc1ccc(Oc2ccccc2F)c(C(F)(F)F)c1N1CCC[C@@H]1CNC1COC1)c1csc(-c2ccnnc2)n1 [Example 63, N-[4-(2-fluorophenoxy)-2-[(2R)-2-{[(oxetan-3-yl)amino]methyl}pyrrolidin-1-yl]-3-(trifluoromethyl)phenyl]-2-(pyridazin-4-yl)-1,3-thiazole-4-carboxamide]",429 nM
2,Cn1ccc(Oc2ccc(NC(=O)c3csc(-c4ccnnc4)n3)c(N3CCC[C@@H](CN)C3)c2C(F)(F)F)n1 [Example 17],13 nM
3,COCCN1CCC2(CCCN(c3c(NC(=O)c4csc(-c5ccnnc5)n4)ccc(Oc4ccccc4)c3C(F)(F)F)C2)CC1 [Example 61],3 nM
4,CNC[C@H]1CN(c2c(NC(=O)c3csc(-c4ccnnc4)n3)ccc(Oc3ccccc3)c2C)CCN1C [Example 65],12 nM
5,NC[C@@H]1CCCN(c2c(NC(=O)c3csc(-c4ccnnc4)n3)ccc(C(=O)c3ccccc3)c2C(F)(F)F)C1 [Example 70],7 nM
6,CN(C)[C@@H]1CCN2CCN(c3c(NC(=O)c4csc(-c5ccnnc5)n4)ccc(OC4CC4)c3C(F)(F)F)C[C@@H]12 [Example 82],3 nM
7,NC[C@H]1CCCN1c1c(NC(=O)c2csc(-c3ccnnc3)n2)ccc(Oc2ccccc2F)c1C(F)(F)F [Example 19],15 nM
8,"O=C(Nc1ccc(Oc2ccccc2)c(C(F)(F)F)c1N1CCOC2(CCN(C3COC3)CC2)C1)c1csc(-c2ccnnc2)n1 [Example 62, N-{2-[9-(oxetan-3-yl)-1-oxa-4,9-diazaspiro[5.5]undecan-4-yl]-4-phenoxy-3-(trifluoromethyl)phenyl}-2-(pyridazin-4-yl)-1,3-thiazole-4-carboxamide]",10 nM
9,CN(C)[C@H]1CCN2CCN(c3c(NC(=O)c4csc(-c5ccnnc5)n4)ccc(Oc4ccccc4)c3C(F)(F)F)C[C@H]12 [Example 81],152 nM
10,CN(C)C[C@@H]1CN(c2c(NC(=O)c3csc(-c4ccnnc4)n3)ccc(Oc3ccccc3)c2C(F)(F)F)CCO1 [Example 56],29 nM
11,CN(C)CC[C@@H]1CN(c2c(NC(=O)c3csc(-c4ccnnc4)n3)ccc(Oc3ccccc3)c2C(F)(F)F)CCO1 [Example 58],144 nM
12,O=C(Nc1ccc(Oc2ccccc2)c(C(F)(F)F)c1C1=CCN(Cc2cc[nH]n2)CC1)c1csc(-c2ccnnc2)n1 [Example 2],53 nM
13,Cc1ccccc1Oc1ccc(NC(=O)c2csc(-c3ccnnc3)n2)c(N2CCC[C@@H](CN)C2)c1C(F)(F)F [Example 21],6 nM
